Data set [1] relates to ovalbumin-sensitized guinea pigs. In words: Active anaphylaxis in the guinea pig: conjunctival symptoms after OVA challenge. It is filed as in vivo. To be noted: 0.4% eye drops, 30 μl/eye 45 min before OVA. How it is done: Male Dunkin-Hartley guinea pigs (250-300 g) were purchased from Charles River (Calco, Italy). Animal procedures followed the guidelines of the University of Bologna Animal Care and Use Committee and conformed to the Association for Research in Vision and Ophthalmology (ARVO) resolution on the use of animals in research.
(§1) Male Dunkin-Hartley guinea pigs were actively immunized by i.p. injection of 200 μg OVA in 2 ml saline with 40 mg aluminum hydroxide (positive control) or saline alone (negative control), as previously reported. […] Negative controls received saline alone.
Conjunctival clinical symptoms were rated blind on both eyes using the following scale: 0, no symptoms; 1, slight conjunctival redness with or without tears; 2, mild conjunctival redness with tears and mild chemosis; 3, mild conjunctival redness with tears and moderate chemosis; 4, severe conjunctival redness with tears and partial lid eversion; 5, severe conjunctival redness with tears and lids more than half closed. The animals were euthanized 24 h after OVA challenge by i.p. injection of Tanax® (3 ml/kg; Hoechst AG, Frankfurt-am-Main, Germany) and the conjunctivas were carefully excised and each was divided into two samples for subsequent investigations. […] The number of eosinophils in each field was counted under light microscopy (×500 magnification). In the other sample eosinophil peroxidase activity was measured.

Data set [2] relates to peripheral human blood eosinophils. In words: Spontaneous eosinophil apoptosis (annexin V/PI flow cytometry). (In general: In flow cytometry, cells or beads pass a laser one at a time.)
Experimental: To assess glucocorticoid-induced apoptosis, cells were double-stained with annexin V-Fluos and propidium iodide (PI). Annexin V-Fluos was used according to the manufacturer's instructions.
The suspension was incubated at room temperature for 10 min and analyzed in the BD FACS Canto II flow cytometry system (Becton, Dickinson and Company, New Jersey, USA). Eosinophils and EoL-1 cells were gated on the basis of their forward and side light scatter, with cell debris excluded from analysis. Apoptotic cells were defined as annexin V^+/PI^− cells. A two-way dot plot was prepared to verify the percentage of apoptotic cells. Annexin V^−/PI^− cells were used as control and annexin V^+/PI^+ cells were considered necrotic.
All data are expressed as mean±S.E.M. for the number of experiments indicated. Statistical comparisons were made by ANOVA and post-hoc Newman-Keuls test with differences of P<0.05 considered significant.
Data set [3] concerns ovalbumin-sensitized guinea pigs. In words: Conjunctival eosinophil infiltration (histology) in OVA-challenged guinea pigs. It is filed as in vivo, guinea pig. To be noted: 0.4% eye drops; 24 h after OVA challenge; vs OVA-treated animals. How it is done:
as §1
Conjunctival clinical symptoms were rated blind on both eyes using the following scale: 0, no symptoms; 1, slight conjunctival redness with or without tears; 2, mild conjunctival redness with tears and mild chemosis; 3, mild conjunctival redness with tears and moderate chemosis; 4, severe conjunctival redness with tears and partial lid eversion; 5, severe conjunctival redness with tears and lids more than half closed. The animals were euthanized 24 h after OVA challenge by i.p. injection of Tanax® (3 ml/kg; Hoechst AG, Frankfurt-am-Main, Germany) and the conjunctivas were carefully excised and each was divided into two samples for subsequent investigations. One sample was fixed in 10% buffered paraformaldehyde solution and paraffin-embedded; slides, 6 μm thick, were stained as described. The number of eosinophils in each field was counted under light microscopy (×500 magnification). In the other sample eosinophil peroxidase activity was measured.

In data set [4] the test system is cultured human ocular cells. To be noted: cultured human ocular cells [13, 29]; cited from earlier work.
Data set [5] concerns monkey trabecular meshwork cells. To be noted: monkey trabecular meshwork cells [28]; cited from earlier work.
For the next data set, the system named is ICAM-1. In words: IL-4 and TNF-α-induced ICAM-1 expression in HConEpiC cell lysates (Luminex). It is filed as cell-based, human. As to conditions: all doses 10-1000 nM, 24 h. The procedure: Primary human conjunctival epithelial cells (HConEpiC) were seeded in two 24-well plates in EpiLife medium+1% Human Corneal Growth Supplement (HCGS; contains bovine pituitary extract, bovine insulin, hydrocortisone, bovine transferrin and mouse epidermal growth factor) at 2×10^4 cells/well. When the cells were confluent (4-5 days after seeding), they were incubated in EpiLife GF medium without glucocorticoids (EpiLife basic medium supplemented with 50 μg/ml bovine pituitary extract, 5 μg/ml bovine insulin and 5 ng/ml mouse epidermal growth factor) for 18 h. […] Culture medium was collected. Cytokine analysis was performed on the culture medium using 2 separate cytokine/chemokine Luminex kits (Kit 1: G-CSF, GM-CSF, IL-6, IL-8, IP-10, MCP-1, RANTES; Kit 2: eotaxin-3, CTACK). ICAM-1 expression was determined in cell lysates using a Luminex kit.
Median fluorescence intensity (MFI) was used to obtain the concentration of each cytokine and ICAM-1 in pg/ml based on the standard curve of each cytokine assayed by Luminex using the StatLIA software. ICAM-1 expression was expressed as pg/mg protein. All data were expressed as mean±SEM. Statistical analysis was performed using a two-way ANOVA-Contrast test with Factor 1 being drug and Factor 2 being dose (JMP 8 software, SAS Institute, Cary, N.C.). […] Data were analyzed either directly or after Box-Cox transformations (9, 10).

For the next data set, the system named is EoL-1 cells. In words: EoL-1 cell apoptosis (annexin V/PI flow cytometry). In kind it is cell-based, human. The procedure:
EoL-1 cells were grown in RPMI-1640+L-glutamine medium (containing 10% FBS) and kept at 37° C. in a 5% CO2 humidified atmosphere. Before each experiment, the cells were stabilized in serum-depleted media (0.1% FBS) for 24 h before treatments.

Another data set has as its system leukocytes (PMN). In words: Leukocytes (PMN) measurement in aqueous humor. It is filed as in vivo, Rabbit. As to conditions: for PMN in aqueous humor at the second paracentesis, Mean: group mean; for PMN in aqueous humor at the second paracentesis: individual eye sample, listed as BOL. How it is done:
Each rabbit was placed in a restraint device and tagged with the alphanumeric code. The formulations were instilled (50 μl) into the conjunctival sac of both eyes 180, 120, 90 and 30 min before the first paracentesis; then 15, 30, 90 min after the first paracentesis. To perform the first paracentesis the animals were anaesthetized by intravenous injection of 5 mg/kg Zoletil® (Virbac; 2.5 mg/kg tiletamine HCl and 2.5 mg/kg zolazepam HCl) and one drop of local anesthetic (Novesina®, Novartis) was administered to the eye. Anterior chamber paracentesis was performed with a 26 G needle attached to a tuberculin syringe; the needle was introduced into the anterior chamber through the cornea, taking care not to damage the tissues. Two hours after the first paracentesis, the animals were sacrificed with 0.4 ml Tanax® (Intervet International B.V.) and the second paracentesis was performed. About 100 μl of aqueous humor were removed at the second paracentesis. Aqueous humor was immediately split in four aliquots and stored at −80° C. until analysis. Then both eyes were enucleated and the iris-ciliary body was carefully excised, placed in polypropylene tubes, and stored at −80° C. until analysis.
For the determination of the number of leukocytes we used a haemocytometer (Improved Neubauer Chamber; Brigth-line, Hausser Scientific) and a Polyvar 2 microscope (Reichert-Jung).

Data set [6] concerns rabbit paracentesis model. In words: Rabbit paracentesis model of ocular inflammation (overall conclusion). It is filed as in vivo. To be noted: 0.1%, 0.5% and 1% topical; preliminary conclusion. From the text:
Inflammatory processes are multidimensional in origin, and are characterized by complex cellular and molecular events involving numerous components all of which have not been identified. Prostaglandins are among these mediators and play an important role in certain forms of ocular inflammation. Paracentesis of the anterior chamber in the rabbit eye induces inflammatory reaction due to the disruption of the blood-aqueous barrier (“BAB”), which is mediated, at least in part, by prostaglandin E2 [References 1-3 below]. Intraocular or topical administration of PGE2 disrupts the BAB. [Reference 4, below] The treatment schedule adopted in this study was similar to the clinical NSAIDs (Ocufen) treatment schedule used by surgeons for patients before cataract surgery.
Each rabbit was placed in a restraint device and tagged with the alphanumeric code. The formulations were instilled (50 μl) into the conjunctival sac of both eyes 180, 120, 90 and 30 min before the first paracentesis; then 15, 30, 90 min after the first paracentesis. To perform the first paracentesis the animals were anaesthetized by intravenous injection of 5 mg/kg Zoletil® (Virbac; 2.5 mg/kg tiletamine HCl and 2.5 mg/kg zolazepam HCl) and one drop of local anesthetic (Novesina®, Novartis) was administered to the eye. […]

As usually defined, the EC50 is the concentration that produces a half-maximal response.

Structures are written as SMILES. “And” between values parts separate entries of the source, which are not always exact repeats. Equal values may be shown once.

`Cc1ccc2c(NC[C@](O)(CC(C)(C)c3cc(F)cc4c3OCC4)C(F)(F)F)cccc2n1` [BOL-303242-X, (R)-1,1,1-Trifluoro-4-(5-fluoro-2,3-dihydrobenzofuran-7-yl)-4-methyl-2-{[(2-methyl-5-quinolyl)amino]methyl}pentan-2-ol]: the “Conjunctival symptoms (swelling of the eyelids and chemosis), early phase” value in data set [1] (1 h after challenge) is listed as “significantly reduced”. For the same molecule, the “Severity of conjunctival symptoms, late phase” value in data set [1] (6 h after challenge) is listed as “significant reduction in the severity of conjunctival symptoms”. Further, the “Eosinophil apoptosis after 24 h exposure” value in [2] (24 h, 0.1% FBS, 100 and 1000 nM, data not shown) is “lower but significant apoptosis”. Moreover, the “Percentage of annexin-V+/PI+ (necrotic) peripheral blood eosinophils” value in [2] (48 h, 5000 nM, mean±SEM, n=12, p>0.05 vs without compound (34±10%)) came out at 25±9%. In addition, in [2] (48 h, 0.1% FBS, no GM-CSF/IL-5, 1-5000 nM), the “Efficacy, enhancement of spontaneous eosinophil apoptosis” value is on record as 90%. Moreover, the EC50 in [2] (read-out: EC50, enhancement of spontaneous eosinophil apoptosis, 48 h, 0.1% FBS, no GM-CSF/IL-5, 1-5000 nM) was 456 nM; with EoL-1 cells (Homo sapiens, EOL1, 0.1% FBS 96 h, compound during the last 72 h, read-out: EC50, enhancement of spontaneous EoL-1 cell apoptosis), 315 nM. In data set [3], the “Eosinophil infiltration of the conjunctiva (histology)” value is listed as “much less marked”. Besides, the “Blocking inflammatory cytokine release” value in data set [4] is “equally potent in blocking inflammatory cytokine release”. In addition, the “Agonism in increasing myocilin expression” value in data set [5] is “partial glucocorticoid receptor agonist”. Moreover, the “IL-4 plus TNF-α-induced ICAM-1 expression in cell lysates” value with ICAM-1 was “significantly decreased”. Further, the “Efficacy, enhancement of spontaneous EoL-1 cell apoptosis” value with EoL-1 cells (0.1% FBS 96 h, compound during the last 72 h) is reported as 61%. Also, in the data set on EoL-1 cells (72 h, 5000 nM, n=12, p>0.05 vs without compound (12±5%)), the “Percentage of annexin-V+/PI+ (necrotic) EoL-1 cells” value is listed as 7±4%. The figures for the “PMN in aqueous humor at the second paracentesis, Mean” value in the data set with leukocytes (PMN) (0.1% topical), with leukocytes (PMN) (0.5% topical) and in the data set with leukocytes (PMN) (1% topical) were 28.333 number/μl, 21.250 number/μl and 28.750 number/μl, respectively. The “PMN in aqueous humor at the second paracentesis” value with leukocytes (PMN) (0.1% topical) is 20 number/μl (4×) and 40 number/μl and 50 number/μl; in the data set with leukocytes (PMN) (0.5% topical), 40 number/μl (2×) and 20 number/μl (3×) and 10 number/μl (3×); in the data set on leukocytes (PMN) (1% topical), 30 number/μl (3×) and 20 number/μl (3×) and 40 number/μl (2×). Further, in data set [6], the “Activity in the rabbit paracentesis model” value is recorded as “active in this model”.

(Values after patent US20110104159A1, “COMPOSITIONS AND METHODS FOR TREATING, CONTROLLING, REDUCING, AMELIORATING, OR PREVENTING ALLERGY” (priority 2006, published 2011).)
